# Values of other authors as cited in patent US20230330126A1, “MODIFIED ADENOSINE NUCLEOSIDE FOR USE IN THE TREATMENT OF VIRAL INFECTIONS” (priority 2020, published 2023).
# Assays:
# [1] = animal and human studies
Structure (SMILES),efficacy compared with theophylline [1],tolerability profile compared with theophylline [1],half-life [h]
"Cn1c(=O)c2c(ncn2CC2OCCO2)n(C)c1=O [doxofylline, Doxofylline]",comparable efficacy to that of theophylline,"better tolerability profile, with significantly fewer side effects",–
"O=c1[nH]cnc2c1ncn2[C@@H]1O[C@H](CO)[C@@H](O)[C@H]1O [inosine, Inosine]",–,–,15
